# Columns and labels:
# [1] = biological target: T1, IDO1-expressing HEK293 cell clones (Homo sapiens, UniProt P14902); test: Cell based kynurenine assay, IDO1-expressing HEK293 cell clones; conditions: HEK293 cells, 24 hours of incubation, geometric mean; read-out: HEK293 IDO1 Kynurenine GMean IC50 (μM) (Cellular Assay)
# T1 construct: expressed in transfected cells; host or cells: HEK293
# Method: (§1) IDO1-expressing or TDO-expressing HEK293 cell clones are generated upon stable transfection of plasmids expressing human IDO or human TDO under the control of CMV promoter. Cells are selected in DMEM media supplemented with 10% fetal bovine serum and 1 mg/ml G418 at 37° C. in a humidified incubator supplied with 5% CO2. The assays are performed as follows.
# (§2) Cells were seeded in a 96 well plate in 50 μL of culture media at a density of 2.5×10^4 per well. Serial dilutions of compounds (in total volume of 50 μL culture media) are added into cells. 4 wells containing 0.2% DMSO treated cells serve as high controls and 4 wells containing media only with 0.2% DMSO serve as low controls. After 24 hours of incubation, the supernatant was transferred to a 384 well reaction plate and the kynurenine level determined. The percentage inhibition at individual concentrations relative to high and low controls is calculated. The data is analyzed by using nonlinear regression to generate IC50 values.
# [2] = biological target: T2, IDO1 (Homo sapiens, UniProt P14902); test: IDO enzymatic assay; assay type: biochemical; conditions: geometric mean; read-out: IDO1 GMean: IC50 (μM) (Biochemical Assay)
# T2 construct: His tag (N); made in house; host or cells: E. coli
# T2 sequence (P14902 whole entry): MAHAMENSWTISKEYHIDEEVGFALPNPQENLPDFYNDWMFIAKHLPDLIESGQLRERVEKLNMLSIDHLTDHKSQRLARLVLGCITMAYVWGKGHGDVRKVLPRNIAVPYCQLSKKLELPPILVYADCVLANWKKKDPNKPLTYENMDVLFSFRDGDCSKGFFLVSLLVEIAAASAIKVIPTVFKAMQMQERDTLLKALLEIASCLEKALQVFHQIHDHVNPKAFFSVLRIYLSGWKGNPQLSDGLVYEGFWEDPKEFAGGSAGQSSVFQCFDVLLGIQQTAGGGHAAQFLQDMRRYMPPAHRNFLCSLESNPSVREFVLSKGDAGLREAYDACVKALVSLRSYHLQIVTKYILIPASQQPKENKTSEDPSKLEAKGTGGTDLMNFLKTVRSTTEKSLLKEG
# Method: (§3) Human IDO or TDO with N-terminal His tag is purified in E. coli. The IDO enzymatic assay is performed using 6 nM IDO and 10 μM L-Trp in the presence of 10 mM ascorbic acid, 5 μM methylene blue, 100 nM catalase and 0.01% Tween 20 in 50 mM sodium phosphate buffer (pH 6.5). 19 μL of above reaction mixture is added to wells of 384 well reaction plate containing 1 μL of various concentrations of test compound or DMSO vehicle and incubated for 20 minutes at room temperature. The TDO enzymatic reaction assay is performed using 1 nM TDO and 350 μM L-Trp in the presence of 10 mM ascorbic acid, 0.4 μM methylene blue, 100 nM catalase and 0.01% Tween 20 in 50 mM sodium phosphate buffer (pH 6.5). 19 μL of above reaction mixture is added to wells of 384 well reaction plate containing 1 μL of various concentrations of test compound or DMSO vehicle and incubated for 70 minutes at room temperature. 16 wells containing all the components of reaction mixture and 5% DMSO serve as high control. 16 well containing all the components except enzyme of reaction mixture and 5% DMSO serves as low control. Both IDO and TDO enzymatic reactions are stopped by addition of 4 μL of 30% TCA and incubated 30 minutes at 50° C. to hydrolyze N-formylkynurenine produced by IDO or TDO to kynurenine. Upon measuring the kynurenine level, the percentage inhibition is calculated at individual concentrations relative to high and low controls. The data is analyzed by using nonlinear regression to generate IC50 values.
# [3] = biological target: T3, TDO (Homo sapiens, UniProt P48775); test: TDO enzymatic assay; conditions: geometric mean; read-out: TDO GMean: IC50 (μM) (Biochemical Assay)
# T3 construct: His tag (N); made in house; host or cells: E. coli
# T3 sequence (P48775 whole entry): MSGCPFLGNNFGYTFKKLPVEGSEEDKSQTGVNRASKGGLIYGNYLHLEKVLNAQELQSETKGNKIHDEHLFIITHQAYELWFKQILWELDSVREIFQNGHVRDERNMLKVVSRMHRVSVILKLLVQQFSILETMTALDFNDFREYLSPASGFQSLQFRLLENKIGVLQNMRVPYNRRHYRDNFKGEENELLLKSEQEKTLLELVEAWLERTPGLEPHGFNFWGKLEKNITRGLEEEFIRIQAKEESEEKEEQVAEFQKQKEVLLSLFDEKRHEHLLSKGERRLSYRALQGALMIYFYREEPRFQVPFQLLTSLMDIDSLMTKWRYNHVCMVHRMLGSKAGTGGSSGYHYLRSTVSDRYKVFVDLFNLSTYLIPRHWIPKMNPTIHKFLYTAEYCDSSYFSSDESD
# Method: as §3
# [4] = biological target: T4, TDO-expressing HEK293 cell clones (Homo sapiens, UniProt P48775); test: Cell based kynurenine assay, TDO-expressing HEK293 cell clones; conditions: HEK293 cells, 24 hours of incubation, geometric mean; read-out: HEK293 TDO Kynurenine GMean IC50 (μM) (Cellular Assay)
# T4 construct: expressed in transfected cells; host or cells: HEK293
# T4 sequence (P48775 whole entry): as above
# Method: as §1, §2
# T1 sequence (P14902 whole entry): as the sequence (P14902 whole entry) above
IC50 [1] [µM],IC50 [2] [µM],IC50 [3] [µM],IC50 [4] [µM],Compound
0.0001 to 10,0.0001 to 10,0.0001 to 10,0.0001 to 10,"C[C@@H](NC(=O)N1CCC(C(C)(C)[C@H](O)c2cc(Cl)cc3cn[nH]c23)CC1)c1ccccn1 [Compound P-0028, 4-((S)-1-(5-chloro-1H-indazol-7-yl)-1-hydroxy-2-methylpropan-2-yl)-N-((R)-1-(pyridin-2-yl)ethyl)piperidine-1-carboxamide]"
0.0001 to 10,0.0001 to 10,0.0001 to 10,0.0001 to 10,"CC(C)(C1CCN(C(=O)NCC2(O)CCC2)CC1)[C@H](O)c1cc(Cl)cc2cn[nH]c12 [Compound P-0029, (S)-4-(1-(5-chloro-1H-indazol-7-yl)-1-hydroxy-2-methylpropan-2-yl)-N-((1-hydroxycyclobutyl)methyl)piperidine-1-carboxamide]"
0.0001 to 10,0.0001 to 10,0.0001 to 10,0.0001 to 10,"CC(C)(C1CCN(C(=O)NCCC#N)CC1)[C@H](O)c1cc(Cl)cc2cn[nH]c12 [Compound P-0030, (S)-4-(1-(5-chloro-1H-indazol-7-yl)-1-hydroxy-2-methylpropan-2-yl)-N-(2-cyanoethyl)piperidine-1-carboxamide]"
0.0001 to 10,0.0001 to 10,0.0001 to 10,> 10,"CC1(CNC(=O)N2CCC(C(C)(C)[C@H](O)c3cc(Cl)cc4cn[nH]c34)CC2)COC1 [Compound P-0031, (S)-4-(1-(5-chloro-1H-indazol-7-yl)-1-hydroxy-2-methylpropan-2-yl)-N-((3-methyloxetan-3-yl)methyl)piperidine-1-carboxamide]"
0.0001 to 10,0.0001 to 10,0.0001 to 10,> 10,"CC(C)(C1CCN(C(=O)Nc2ccc(Cl)nc2)CC1)[C@H](O)c1cc(Cl)cc2cn[nH]c12 [Compound P-0032, (S)-4-(1-(5-chloro-1H-indazol-7-yl)-1-hydroxy-2-methylpropan-2-yl)-N-(6-chloropyridin-3-yl)piperidine-1-carboxamide]"
0.0001 to 10,0.0001 to 10,0.0001 to 10,> 10,"N#CCC(=O)N1CCC(C(F)(F)C(=O)c2c(F)c(Cl)cc3cn[nH]c23)CC1 [Compound P-0033, 3-(4-(2-(5-chloro-6-fluoro-1H-indazol-7-yl)-1,1-difluoro-2-oxoethyl)piperidin-1-yl)-3-oxopropanenitrile]"
0.0001 to 10,0.0001 to 10,0.0001 to 10,0.0001 to 10,"COCC(=O)N1CCC(C(F)(F)C(=O)c2c(F)c(Cl)cc3cn[nH]c23)CC1 [Compound P-0034, 1-(5-chloro-6-fluoro-1H-indazol-7-yl)-2,2-difluoro-2-(1-(2-methoxyacetyl)piperidin-4-yl)ethan-1-one]"
0.0001 to 10,0.0001 to 10,0.0001 to 10,0.0001 to 10,"CCNC(=O)N1CCC(C(F)(F)C(=O)c2c(F)c(Cl)cc3cn[nH]c23)CC1 [Compound P-0035, 4-(2-(5-chloro-6-fluoro-1H-indazol-7-yl)-1,1-difluoro-2-oxoethyl)-N-ethylpiperidine-1-carboxamide]"
0.0001 to 10,0.0001 to 10,0.0001 to 10,0.0001 to 10,"O=C(NCC1CC1)N1CCC(C(F)(F)C(=O)c2c(F)c(Cl)cc3cn[nH]c23)CC1 [Compound P-0036, 4-(2-(5-chloro-6-fluoro-1H-indazol-7-yl)-1,1-difluoro-2-oxoethyl)-N-(cyclopropylmethyl)piperidine-1-carboxamide]"
0.0001 to 10,0.0001 to 10,0.0001 to 10,0.0001 to 10,"COCCCNC(=O)N1CCC(C(F)(F)C(=O)c2c(F)c(Cl)cc3cn[nH]c23)CC1 [Compound P-0037, 4-(2-(5-chloro-6-fluoro-1H-indazol-7-yl)-1,1-difluoro-2-oxoethyl)-N-(3-methoxypropyl)piperidine-1-carboxamide]"
0.0001 to 10,0.0001 to 10,0.0001 to 10,> 10,"CS(=O)(=O)CCNC(=O)N1CCC(C(F)(F)C(=O)c2c(F)c(Cl)cc3cn[nH]c23)CC1 [Compound P-0038, 4-(2-(5-chloro-6-fluoro-1H-indazol-7-yl)-1,1-difluoro-2-oxoethyl)-N-(2-(methylsulfonyl)ethyl)piperidine-1-carboxamide]"
0.0001 to 10,0.0001 to 10,0.0001 to 10,0.0001 to 10,"O=C(NCCC(F)(F)F)N1CCC(C(F)(F)C(=O)c2c(F)c(Cl)cc3cn[nH]c23)CC1 [Compound P-0039, 4-(2-(5-chloro-6-fluoro-1H-indazol-7-yl)-1,1-difluoro-2-oxoethyl)-N-(3,3,3-trifluoropropyl)piperidine-1-carboxamide]"
0.0001 to 10,0.0001 to 10,0.0001 to 10,0.0001 to 10,"O=C(NC1CC(F)(F)C1)N1CCC(C(F)(F)C(=O)c2c(F)c(Cl)cc3cn[nH]c23)CC1 [Compound P-0040, 4-(2-(5-chloro-6-fluoro-1H-indazol-7-yl)-1,1-difluoro-2-oxoethyl)-N-(3,3-difluorocyclobutyl)piperidine-1-carboxamide]"
0.0001 to 10,0.0001 to 10,0.0001 to 10,0.0001 to 10,"O=C(NC1CCC(F)(F)CC1)N1CCC(C(F)(F)C(=O)c2c(F)c(Cl)cc3cn[nH]c23)CC1 [Compound P-0041, 4-(2-(5-chloro-6-fluoro-1H-indazol-7-yl)-1,1-difluoro-2-oxoethyl)-N-(4,4-difluorocyclohexyl)piperidine-1-carboxamide]"
0.0001 to 10,0.0001 to 10,0.0001 to 10,0.0001 to 10,"N#CCCCNC(=O)N1CCC(C(F)(F)C(=O)c2c(F)c(Cl)cc3cn[nH]c23)CC1 [Compound P-0042, 4-(2-(5-chloro-6-fluoro-1H-indazol-7-yl)-1,1-difluoro-2-oxoethyl)-N-(3-cyanopropyl)piperidine-1-carboxamide]"
0.0001 to 10,0.0001 to 10,0.0001 to 10,> 10,"O=C(NCCCF)N1CCC(C(F)(F)C(=O)c2c(F)c(Cl)cc3cn[nH]c23)CC1 [Compound P-0043, 4-(2-(5-chloro-6-fluoro-1H-indazol-7-yl)-1,1-difluoro-2-oxoethyl)-N-(3-fluoropropyl)piperidine-1-carboxamide]"
0.0001 to 10,0.0001 to 10,0.0001 to 10,0.0001 to 10,"CC(C)(C1CCN(C(=O)c2cccnc2)CC1)C(O)c1cc(Cl)cc2[nH]ncc12 (centres unmarked) [Compound P-0044, (4-(1-(6-chloro-1H-indazol-4-yl)-1-hydroxy-2-methylpropan-2-yl)piperidin-1-yl)(pyridin-3-yl)methanone]"
0.0001 to 10,0.0001 to 10,0.0001 to 10,0.0001 to 10,"CCCC(=O)N1CCC(C(C)(C)C(O)c2cc(Cl)cc3[nH]ncc23)CC1 (centres unmarked) [Compound P-0045, 1-(4-(1-(6-chloro-1H-indazol-4-yl)-1-hydroxy-2-methylpropan-2-yl)piperidin-1-yl)butan-1-one]"
> 10,0.0001 to 10,0.0001 to 10,0.0001 to 10,"CC(C)(C1CCN(C(=O)C2CC2)CC1)C(O)c1cc(Cl)cc2[nH]ncc12 (centres unmarked) [Compound P-0046, (4-(1-(6-chloro-1H-indazol-4-yl)-1-hydroxy-2-methylpropan-2-yl)piperidin-1-yl)(cyclopropyl)methanone]"
0.0001 to 10,0.0001 to 10,0.0001 to 10,0.0001 to 10,"CC(C)(C1CCN(C(=O)CC#N)CC1)C(O)c1cc(Cl)cc2[nH]ncc12 (centres unmarked) [Compound P-0047, 3-(4-(1-(6-chloro-1H-indazol-4-yl)-1-hydroxy-2-methylpropan-2-yl)piperidin-1-yl)-3-oxopropanenitrile]"

# Reference: patent US11149011B2, “Compounds and methods for IDO and TDO modulation, and indications therefor” (Plexxikon Inc., priority 2018, dated 2021)
